Legend:
Assay type in all cases: biochemical
PDE9 = PDE9 (Homo sapiens (Human), UniProt O76083); assay: PDE9 inhibition assay, SPA; conditions: 10 microM compound; 10 nM 3H-cAMP;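 also: enzyme reaction incubated for 1 h, then stopped by adding yttrium silicate scintillation proximity beads for the read-out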
Description: Reactions are initiated by addition of the cyclic nucleotide substrate, and reactions are allowed to proceed for one hr at room temperature before being terminated through mixing with 15 μL 8 mg/mL yttrium silicate SPA beads (Amersham).
Following 1 hr incubation the reactions were terminated by addition of 15 uL 8 mg/mL yttrium silicate SPA beads (Amersham).

PDE1A = PDE1A (Homo sapiens (Human), UniProt P54750); assay: PDE1 inhibition assay (PDE1A), SPA; conditions: 15 nM tritium labelled cAMP
Description: (§1) Reactions were initiated by addition of the cyclic nucleotide substrate, and reactions were allowed to proceed for 1 hr at room temperature before being terminated through mixing with 20 μL (0.2 mg) yttrium silicate SPA beads (PerkinElmer). The beads were allowed to settle for 1 hr in the dark before the plates were counted in a Wallac 1450 Microbeta counter.

PDE1C = PDE1C (Homo sapiens (Human), UniProt Q14123); assay: PDE1 inhibition assay (PDE1C), SPA; conditions: 15 nM tritium labelled cAMP
Description: as §1

PDE1B = PDE1B (Homo sapiens (Human), UniProt Q01064); assay: PDE1 inhibition assay (PDE1B), SPA; conditions: 15 nM tritium labelled cAMP
Sequence of PDE1B (Q01064 whole entry): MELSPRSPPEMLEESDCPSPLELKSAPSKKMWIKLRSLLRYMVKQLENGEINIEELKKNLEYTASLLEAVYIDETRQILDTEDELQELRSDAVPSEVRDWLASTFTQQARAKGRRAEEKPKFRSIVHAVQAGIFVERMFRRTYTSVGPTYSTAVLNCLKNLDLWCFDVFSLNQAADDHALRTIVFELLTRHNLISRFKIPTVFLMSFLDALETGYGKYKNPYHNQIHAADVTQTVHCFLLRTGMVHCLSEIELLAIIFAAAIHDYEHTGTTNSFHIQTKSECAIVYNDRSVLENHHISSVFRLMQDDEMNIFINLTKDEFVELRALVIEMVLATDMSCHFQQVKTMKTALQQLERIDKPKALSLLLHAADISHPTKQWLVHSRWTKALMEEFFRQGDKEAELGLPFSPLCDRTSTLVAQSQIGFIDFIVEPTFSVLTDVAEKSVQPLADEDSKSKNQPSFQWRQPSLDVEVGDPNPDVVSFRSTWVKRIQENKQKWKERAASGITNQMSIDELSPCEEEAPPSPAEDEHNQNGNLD
Description: Reactions were initiated by addition of the cyclic nucleotide substrate, and reactions were allowed to proceed for 1 hr at room temperature before being terminated through mixing with 20 μL (0.2 mg) yttrium silicate SPA beads (PerkinElmer).

Sequence of PDE1C (Q14123 whole entry): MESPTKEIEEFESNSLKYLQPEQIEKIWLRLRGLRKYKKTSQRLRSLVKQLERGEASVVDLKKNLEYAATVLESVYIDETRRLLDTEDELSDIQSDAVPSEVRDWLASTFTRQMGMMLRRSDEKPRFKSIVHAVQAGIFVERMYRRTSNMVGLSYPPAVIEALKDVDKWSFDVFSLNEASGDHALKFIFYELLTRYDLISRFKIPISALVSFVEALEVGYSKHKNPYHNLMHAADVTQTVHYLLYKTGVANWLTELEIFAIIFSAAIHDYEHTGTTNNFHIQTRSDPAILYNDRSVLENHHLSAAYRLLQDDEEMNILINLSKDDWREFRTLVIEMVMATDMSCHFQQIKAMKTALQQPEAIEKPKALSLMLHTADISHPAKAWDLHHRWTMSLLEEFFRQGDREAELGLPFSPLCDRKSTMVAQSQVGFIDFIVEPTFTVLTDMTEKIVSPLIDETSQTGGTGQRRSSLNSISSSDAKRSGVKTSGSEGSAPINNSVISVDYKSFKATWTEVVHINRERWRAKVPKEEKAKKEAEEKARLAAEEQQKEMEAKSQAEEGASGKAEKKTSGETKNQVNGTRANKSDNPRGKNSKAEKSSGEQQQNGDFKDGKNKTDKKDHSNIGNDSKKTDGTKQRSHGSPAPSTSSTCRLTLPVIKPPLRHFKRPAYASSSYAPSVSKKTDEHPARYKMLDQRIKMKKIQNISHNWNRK
Sequence of PDE9 (O76083 whole entry): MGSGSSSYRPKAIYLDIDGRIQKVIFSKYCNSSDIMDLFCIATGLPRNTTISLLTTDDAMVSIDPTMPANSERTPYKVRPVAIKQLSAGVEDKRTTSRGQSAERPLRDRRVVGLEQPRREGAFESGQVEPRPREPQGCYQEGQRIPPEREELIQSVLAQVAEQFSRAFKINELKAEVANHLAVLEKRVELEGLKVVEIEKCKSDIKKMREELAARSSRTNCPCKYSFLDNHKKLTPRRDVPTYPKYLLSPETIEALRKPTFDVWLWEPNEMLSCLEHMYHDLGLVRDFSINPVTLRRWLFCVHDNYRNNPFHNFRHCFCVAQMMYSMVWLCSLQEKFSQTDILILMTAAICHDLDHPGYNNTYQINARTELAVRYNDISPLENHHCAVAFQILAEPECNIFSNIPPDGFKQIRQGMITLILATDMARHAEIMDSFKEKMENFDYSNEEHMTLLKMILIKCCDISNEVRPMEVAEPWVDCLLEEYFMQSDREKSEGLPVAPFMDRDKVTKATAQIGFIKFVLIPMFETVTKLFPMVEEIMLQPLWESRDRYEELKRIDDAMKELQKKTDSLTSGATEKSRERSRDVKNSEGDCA
Sequence of PDE1A (P54750 whole entry): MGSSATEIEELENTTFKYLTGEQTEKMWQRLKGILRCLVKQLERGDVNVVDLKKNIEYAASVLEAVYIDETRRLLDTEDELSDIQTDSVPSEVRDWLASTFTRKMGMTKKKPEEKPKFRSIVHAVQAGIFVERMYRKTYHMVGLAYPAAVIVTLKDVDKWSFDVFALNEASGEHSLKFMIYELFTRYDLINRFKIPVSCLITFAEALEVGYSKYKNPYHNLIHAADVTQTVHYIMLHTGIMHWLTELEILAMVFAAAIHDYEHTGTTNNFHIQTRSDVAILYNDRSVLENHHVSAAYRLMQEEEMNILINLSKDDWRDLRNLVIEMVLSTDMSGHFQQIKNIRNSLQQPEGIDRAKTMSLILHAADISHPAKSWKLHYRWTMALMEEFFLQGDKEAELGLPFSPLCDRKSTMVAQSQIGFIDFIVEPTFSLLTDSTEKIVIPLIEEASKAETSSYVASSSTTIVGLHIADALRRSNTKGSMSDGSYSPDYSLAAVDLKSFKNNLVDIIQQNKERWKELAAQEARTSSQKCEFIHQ

| Structure (SMILES) | inhibition at 10 µM (PDE9) | IC50 (PDE1A) | IC50 (PDE1C) | IC50 (PDE1B) | inhibition at 10 µM (PDE1A; read-out: PDE1A, % inhibition @10 μM, 10 μM compound) |
| --- | --- | --- | --- | --- | --- |
| O=c1c2cnn(C3CCOCC3)c2nc(Cc2ccccc2)n1CC1CCCCC1 [Example 1, 6-benzyl-5-(cyclohexylmethyl)-1-(tetrahydro-2H-pyran-4-yl)-1,5-dihydro-4H-pyrazolo[3,4-d]pyrimidin-4-one] | 51% | 349 nM | 120 nM | 320 nM |  |
| Cc1cc2c(cnn2C2CCOCC2)c(=O)n1Cc1cccc(F)c1 [Example 10, 5-[(3-fluorophenyl)methyl]-6-methyl-1-tetrahydropyran-4-yl-pyrazolo[4,3-c]pyridin-4-one] | 3% | 1070 nM | 149 nM |  |  |
| COc1ccc(Cn2c(C)cc3c(cnn3[C@@H]3CCO[C@H]3C)c2=O)cc1 (relative stereo) [Example 26, 5-[(4-methoxyphenyl)methyl]-6-methyl-1-[(trans)-2-methyltetrahydrofuran-3-yl]pyrazolo[4,3-c]pyridin-4-one] | 8% | 206 nM | 345 nM | 83 nM |  |
| Cc1ccc(Cn2c(C)cc3c(cnn3C3CCOCC3)c2=O)cc1 [Example 16, 6-methyl-5-(p-tolylmethyl)-1-tetrahydropyran-4-yl-pyrazolo[4,3-c]pyridin-4-one] | -1% | 400 nM | 496 nM | 71 nM |  |
| COc1ccc(Cn2c(C(C)C)nc3c(cnn3C3CCOCC3)c2=O)cc1 [Example 8, 6-isopropyl-5-[(4-methoxyphenyl)methyl]-1-tetrahydropyran-4-yl-pyrazolo[3,4-d]pyrimidin-4-one] | 7% | 751 nM | 1320 nM | 211 nM |  |
| COc1ccc(Cn2c(C)cc3c(cnn3C3CCOCC3)c2=O)cn1 [Example 18, 5-[(6-methoxy-3-pyridyl)methyl]-6-methyl-1-tetrahydropyran-4-yl-pyrazolo[4,3-c]pyridin-4-one] | 9% | 738 nM | 1170 nM |  |  |
| COc1ccc(Cn2c(C)cc3c(cnn3C3CCOCC3)c2=O)cc1 [Example 19, 5-(4-methoxybenzyl)-6-methyl-1-(tetrahydro-2H-pyran-4-yl)-1,5-dihydro-4H-pyrazolo[4,3-c]pyridin-4-one] | 19% | 184 nM | 171 nM |  |  |
| CCCn1ncc2c(=O)n(Cc3ccc(OC)cc3)c(C)cc21 [Example 20, 5-(4-methoxybenzyl)-6-methyl-1-propyl-1,5-dihydro-4H-pyrazolo[4,3-c]pyridin-4-one] | 19% | 290 nM | 233 nM | 82 nM |  |
| COc1ccc(Cn2c(C)cc3c(cnn3C3CCOC3)c2=O)cc1 (stereo not drawn) [Example 22, 5-[(4-methoxyphenyl)methyl]-6-methyl-1-tetrahydrofuran-3-yl-pyrazolo[4,3-c]pyridin-4-one] | 8% | 1690 nM | 1200 nM | 569 nM |  |
| Cc1cc2c(cnn2C2CCOCC2)c(=O)n1Cc1ccc2c(c1)OCO2 [Example 17, 5-(1,3-benzodioxol-5-ylmethyl)-6-methyl-1-tetrahydropyran-4-yl-pyrazolo[4,3-c]pyridin-4-one] | -2% | 429 nM | 662 nM | 154 nM |  |
| Cc1cc2c(cnn2C2CCOCC2)c(=O)n1Cc1ccccc1 [Example 13, 5-benzyl-6-methyl-1-tetrahydropyran-4-yl-pyrazolo[4,3-c]pyridin-4-one] | -18% | 1260 nM | 135 nM |  |  |
| Cc1cc2c(cnn2C2CCOCC2)c(=O)n1Cc1ccc(F)cc1 [Example 15, 5-[(4-fluorophenyl)methyl]-6-methyl-1-tetrahydropyran-4-yl-pyrazolo[4,3-c]pyridin-4-one] | -13% | 1240 nM | 204 nM | 258 nM |  |
| Cc1cc2c(cnn2C2CCOCC2)c(=O)n1Cc1cccc(Cl)c1 [Example 14, 5-[(3-chlorophenyl)methyl]-6-methyl-1-tetrahydropyran-4-yl-pyrazolo[4,3-c]pyridin-4-one] | -15% | 1300 nM | 95 nM | 413 nM |  |
| COc1ccc(Cn2c(C)cc3c(cnn3C3CC3)c2=O)cc1 [Example 23, 1-cyclopropyl-5-[(4-methoxyphenyl)methyl]-6-methyl-pyrazolo[4,3-c]pyridin-4-one] | -6% | 543 nM | 975 nM | 255 nM |  |
| COc1ccc(Cn2c(C)cc3c(cnn3[C@@H]3CCO[C@@H]3C)c2=O)cc1 (relative stereo) [Example 27, 5-[(4-methoxyphenyl)methyl]-6-methyl-1-[(cis)-2-methyltetrahydrofuran-3-yl]pyrazolo[4,3-c]pyridin-4-one] | 13% | 1300 nM | 686 nM | 179 nM |  |
| Cc1nc2c(cnn2C2CCOCC2)c(=O)n1CC1CCCCC1 [Example 3, 5-(cyclohexylmethyl)-6-methyl-1-tetrahydropyran-4-yl-pyrazolo[3,4-d]pyrimidin-4-one] | 29% | 172 nM | 29 nM | 103 nM |  |
| COCc1nc2c(cnn2C2CCOCC2)c(=O)n1Cc1ccc(OC)cc1 [Example 7, 6-(methoxymethyl)-5-[(4-methoxyphenyl)methyl]-1-tetrahydropyran-4-yl-pyrazolo[3,4-d]pyrimidin-4-one] | -12% | 325 nM | 345 nM | 181 nM |  |
| CCCn1ncc2c(=O)n(Cc3ccc(OC)cc3)c(C)nc21 [Example 4, 5-[(4-methoxyphenyl)methyl]-6-methyl-1-propyl-pyrazolo[3,4-d]pyrimidin-4-one] | 13% | 108 nM | 72 nM | 68 nM |  |
| COc1ccc(Cn2c(C)cc3c(cnn3C3COC3)c2=O)cc1 [Example 28, 5-(4-methoxybenzyl)-6-methyl-1-(oxetan-3-yl)-1,5-dihydro-4H-pyrazolo[4,3-c]pyridin-4-one] | 14% |  | 2180 nM | 704 nM | 63% |
| COc1ccc(Cn2c(C)cc3c(cnn3C(C)C)c2=O)cc1 [Example 21, 1-isopropyl-5-[(4-methoxyphenyl)methyl]-6-methyl-pyrazolo[4,3-c]pyridin-4-one] | -14% | 49 nM | 134 nM | 37 nM |  |
| COc1ccc(Cn2c(C)nc3c(cnn3C3CCOCC3)c2=O)cc1 [Example 2, 5-(4-methoxybenzyl)-6-methyl-1-(tetrahydro-2H-pyran-4-yl)-1H-pyrazolo[3,4-d]pyrimidin-4(5H)-one] | 10% | 132 nM | 74 nM | 62 nM |  |
| CCn1ncc2c(=O)n(Cc3ccc(OC)cc3)c(C)cc21 [Example 24, 1-ethyl-5-[(4-methoxyphenyl)methyl]-6-methyl-pyrazolo[4,3-c]pyridin-4-one] | 19% | 1120 nM | 1330 nM | 329 nM |  |
| COc1ccc(Cn2c(C)cc3c(cnn3C3(C)CCOCC3)c2=O)cc1 [Example 29, 5-(4-methoxybenzyl)-6-methyl-1-(4-methyltetrahydro-2H-pyran-4-yl)-1,5-dihydro-4H-pyrazolo[4,3-c]pyridin-4-one] | 26% | 119 nM | 174 nM | 87 nM |  |
| CCCn1ncc2c(=O)n(CC3CCCCC3)c(C)nc21 [Example 5, 5-(cyclohexylmethyl)-6-methyl-1-propyl-pyrazolo[3,4-d]pyrimidin-4-one] | -16% | 111 nM | 36 nM | 31 nM |  |
| COc1ccc(Cn2c(C)cc3c(cnn3C3CCCOC3)c2=O)cc1 (stereo not drawn) [Example 25, 5-[(4-methoxyphenyl)methyl]-6-methyl-1-tetrahydropyran-3-yl-pyrazolo[4,3-c]pyridin-4-one] | 8% | 825 nM | 644 nM |  |  |
| COc1ccc(Cn2c(CC3COC3)nc3c(cnn3C3CCOCC3)c2=O)cc1 [Example 9, 5-[(4-methoxyphenyl)methyl]-6-(oxetan-3-ylmethyl)-1-tetrahydropyran-4-yl-pyrazolo[3,4-d]pyrimidin-4-one] | 12% |  | 165 nM | 58 nM |  |
| Cc1cc2c(cnn2C2CCOCC2)c(=O)n1Cc1ccccc1F [Example 11, 5-[(2-fluorophenyl)methyl]-6-methyl-1-tetrahydropyran-4-yl-pyrazolo[4,3-c]pyridin-4-one] | 12% | 589 nM | 61 nM |  |  |
| Cc1cc2c(cnn2C2CCOCC2)c(=O)n1Cc1ccc(Cl)cc1 [Example 12, 5-[(4-chlorophenyl)methyl]-6-methyl-1-tetrahydropyran-4-yl-pyrazolo[4,3-c]pyridin-4-one] | 16% | 127 nM | 419 nM |  |  |
| CCc1nc2c(cnn2C2CCOCC2)c(=O)n1Cc1ccc(OC)cc1 [Example 6, 6-ethyl-5-[(4-methoxyphenyl)methyl]-1-tetrahydropyran-4-yl-pyrazolo[3,4-d]pyrimidin-4-one] | 2% | 107 nM | 140 nM | 80 nM |  |
